Experimental data reported in patent US20020107197A1, “Ligands for G protein coupled receptors and methods of using them” (priority 2000, published 2002).

Legend:
HEY ovarian cancer cells = assay: DNA synthesis / growth of HEY ovarian cancer cells with SPC and phage preparations; format: cell-based, human; conditions: SPC 10 μM
Experimental: To determine if these selected phage clones were capable of blocking a biological effect of SPC, we mixed phage preparations with SPC. After a 30 min incubation, this mixture was added to HEY cells and its effect on SPC-induced cell proliferation was tested. If a phage clone was carrying a specific sequence which binds to SPC, the addition of the phage to SPC could block the effect of SPC on HEY cells.

GPR4 = target: T1, GPR4 (Homo sapiens, UniProt P46093); assay: DNA synthesis ([3H]thymidine incorporation) in GPR4-infected Swiss 3T3 cells; format: cell-based; conditions: 3 μM, GPR4-infected Swiss 3T3 cells
T1 construct: were used to generate full length GPR4, which was digested with EcoRI and Xba I and cloned into the pBs3HA vector; expressed in transfected cells
Experimental: The effect of SPC and LPC on DNA synthesis was measured using [^3H] thymidine incorporation. Briefly, GPR4-ires-GFP- and GFP-Swiss 3T3 cells were plated in 96-well plates, serum-starved for 24 h, and treated with SPC, LPC, or other lipids in serum-free DMEM for 24 h. Cells were incubated with 0.75 μCi/ml [^3H]thymidine in serum-free DMEM for the last 18 h. Cells were harvested onto filter papers presoaked in 1% polyethylenimine using the automated cell harvester HARVEST 96. Incorporated [^3H]thymidine was counted in a 1450 Microbeta Trilux Liquid Scintillation and Luminescence Counter (Perkin-Elmer-Wallac, Inc.).

T1 sequence (P46093 whole entry): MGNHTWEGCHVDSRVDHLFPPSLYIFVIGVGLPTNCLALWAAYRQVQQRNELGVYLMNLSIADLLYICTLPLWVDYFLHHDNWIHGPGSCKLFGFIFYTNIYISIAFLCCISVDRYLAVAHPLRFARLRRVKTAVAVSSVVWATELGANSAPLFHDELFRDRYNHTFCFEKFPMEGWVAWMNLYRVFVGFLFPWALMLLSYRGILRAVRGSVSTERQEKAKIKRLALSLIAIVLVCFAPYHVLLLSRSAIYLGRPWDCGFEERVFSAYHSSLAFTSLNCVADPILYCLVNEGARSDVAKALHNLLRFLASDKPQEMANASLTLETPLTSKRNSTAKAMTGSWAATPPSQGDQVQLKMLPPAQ

CCCCCCCCCCCCC/C=C/[C@@H](O)[C@@H](N)COP(=O)([O-])OCC[N+](C)(C)C [SPC, Sphingosylphosphorylcholine]
effect on DNA synthesis in HEY cells (HEY ovarian cancer cells): inhibited DNA synthesis

CCCCCCCCCCCCCCCC(=O)OC[C@@H](O)COP(=O)([O-])OCC[N+](C)(C)C [16:0-LPC]
increase of [3H]thymidine incorporation (GPR4): 1.6 fold
